Source: patent publication US20210221866A1, “PROTEASE-RESISTANT LIPIDATED GLP-1 ANALOGS” (MEDIMMUNE LIMITED, priority 2015, published 2021)
Where two headings read alike, the source gives them in different places. Numbered stars: 1 amine (or outer) side, 2 acyl side, 3 side chain; on linkers, the order of the positions; unused ones are H or OH. Square brackets hold non-standard residues; d marks the D form. Side chains are listed from the residue outwards. Peptide text beside a SMILES is read from it. * marks the point of attachment. γGlu = O=C(O)[C@H](CCC(=O)[*:2])N[*:1]; αMeF = C[C@](N)(Cc1ccccc1)C(=O)O; αMeK = C[C@](N)(CCCCN)C(=O)O; Lauroyl = CCCCCCCCCCCC(=O)*; αMeS = C[C@](N)(CO)C(=O)O; Nle = CCCC[C@H](N)C(=O)O; AEEA = NCCOCCOCC(=O)O; Aib = CC(C)(N)C(=O)O

Legend:
recombinant Neprilysin = target: T1, recombinant Neprilysin (Homo sapiens, UniProt P08473); test: Proteolytic resistance to neprilysin (% remaining peptide, RP-HPLC AUC); type: in vitro ADME; details: t = 0 (baseline); 37° C., pH 8.3; enzyme:peptide ~1:33 for non-lipidated, ~1:2.5 for lipidated peptides
T1 construct: purchased R&D Systems 1182-ZNC-010
Experimental: Ratio enzyme (units):peptide (moles) ˜1:33. […] Ratio enzyme (units):peptide (moles) ˜1:2.5.
15 μL aliquots (˜15 ng initial peptide) of the peptide-enzyme mixture were periodically withdrawn (t=0, 30 mins, 1 hr, 2 hr, 4 hr, 8 hr, 24 hr) and quenched immediately by addition to an equal volume (15 μL) of 5% TFA (v/v) in 1:1 water/acetonitrile to arrest proteolytic activity. 20 μL aliquots (˜10 ng initial peptide) were analyzed by LC/MS and/or analytical RP-HPLC as follows: LC/MS method: Agilent Polaris C8-A column (4.6×100 mm, 3 micron) eluted with a linear binary gradient of 10-90% MeCN (0.1% TFA v/v) in water (0.1% TFA v/v) over 30 mins at 1.5 mL min-1 at ambient temperature with detection by both UV absorption at 210 nm and ionization using a Waters 3100 mass detector (ESI+ mode). Peptide fragments deriving from enzymatic hydrolysis were identified by molecular weight, allowing location of the site of cleavage. Analytical RP-HPLC method: Agilent Polaris C8-A column (4.6×100 mm, 3 micron) eluted with a linear binary gradient of 10-90% MeCN (0.1% TFA v/v) in water (0.1% TFA v/v) over either 10 or 15 mins at 1.5 mL min^−1 at 40° C. with detection by UV absorption at 210 nm. Manual integration (AUC) allowed estimation of remaining intact peptide over the time course of the experiment.
25 μL aliquots (˜6 μg initial peptide) were analyzed by LC/MS and/or analytical RP-HPLC as follows: LC/MS method: Agilent Polaris C8-A column (4.6×100 mm, 3 micron) eluted with a linear binary gradient of 10-90% MeCN (0.1% TFA v/v) in water (0.1% TFA v/v) over 30 mins at 1.5 mL min^−1 at ambient temperature with detection by both UV absorption at 210 nm and ionization using a Waters 3100 mass detector (ESI^+ mode). Peptide fragments deriving from enzymatic hydrolysis were identified by molecular weight, allowing location of the site of cleavage. Analytical RP-HPLC method: Agilent Polaris C8-A column (4.6×100 mm, 3 micron) eluted with a linear binary gradient of 10-90% MeCN (0.1% TFA v/v) in water (0.1% TFA v/v) over either 10 or 15 mins at 1.5 mL min^−1 at 40° C. with detection by UV absorption at 210 nm. Manual integration (AUC) allowed estimation of remaining intact peptide over the time course of the experiment.

[1] = target: porcine pancreatic trypsin (Sus scrofa, UniProt P00761); test: Proteolytic resistance to trypsin (% remaining intact peptide, RP-HPLC AUC); type: in vitro ADME; details: t = 0; 37° C., pH 7.8
Experimental: Trypsin: Lyophilized porcine pancreatic trypsin (Sigma: T1426) was reconstituted to afford a solution of 100 μg/mL (˜300 units/mL) in assay buffer (50 mM Tris, 10 mM CaCl2), 150 mM NaCl, 1 mM HCl, adjusted to pH 7.8) to give the enzyme stock solution. […] Ratio enzyme (units):peptide (μmoles) ˜1:11. […] Ratio enzyme (units):peptide (μ moles) ˜1.2:1.
Lyophilized porcine pancreatic trypsin (Sigma: T7409) was reconstituted to 200 μg/mL (˜300 units/mL) in assay buffer (50 mM Tris, 10 mM CaCl2), 150 mM NaCl, 1 mM HCl, adjusted to pH 7.8) to give the enzyme stock solution. […] 15 μL aliquots (˜15 μg initial peptide) of the peptide-enzyme mixture were periodically withdrawn (t=0, 30 mins, 1 hr, 2 hr, 4 hr, 8 hr, 24 hr) and quenched immediately by addition to an equal volume (15 μL) of 5% TFA (v/v) in 1:1 water/acetonitrile to arrest proteolytic activity. 20 μL aliquots (˜10 μg initial peptide) were analysed by LC/MS and/or analytical RP-HPLC as follows: LC/MS method: Agilent Polaris C8-A column (4.6×100 mm, 3 micron) eluted with a linear binary gradient of 10-90% MeCN (0.1% TFA v/v) in water (0.1% TFA v/v) over 30 mins at 1.5 mL min^−1 at ambient temperature with detection by both UV absorption at 210 nm and ionization using a Waters 3100 mass detector (ESI^+ mode). Peptide fragments deriving from enzymatic hydrolysis were identified by molecular weight, allowing location of the site of cleavage. Analytical RP-HPLC method: Agilent Polaris C8-A column (4.6×100 mm, 3 micron) eluted with a linear binary gradient of 10-90% MeCN (0.1% TFA v/v) in water (0.1% TFA v/v) over either 10 or 15 mins at 1.5 mL min^−1 at 40° C. with detection by UV absorption at 210 nm. Manual integration (AUC) allowed estimation of remaining intact peptide over the time course of the experiment.
Lyophilized porcine pancreatic trypsin (Sigma: T7409) was reconstituted to 200 μg/mL (˜300 units/mL) in assay buffer (50 mM Tris, 10 mM CaCl2), 150 mM NaCl, 1 mM HCl, adjusted to pH 7.8) to give the enzyme stock solution. […] 25 μL aliquots (˜17 μg initial peptide) of the peptide-enzyme mixture were periodically withdrawn (t=0, 30 mins, 1 hr, 2 hr, 4 hr, 8 hr, 24 hr) and quenched immediately by addition to an equal volume (25 μL) of 5% TFA (v/v) in 1:1 water/acetonitrile to arrest proteolytic activity. 25 μL aliquots (˜8 μg initial peptide) were analysed by LC/MS and/or analytical RP-HPLC as follows: LC/MS method: Agilent Polaris C8-A column (4.6×100 mm, 3 micron) eluted with a linear binary gradient of 10-90% MeCN (0.1% TFA v/v) in water (0.1% TFA v/v) over 30 mins at 1.5 mL min^−1 at ambient temperature with detection by both UV absorption at 210 nm and ionization using a Waters 3100 mass detector (ESI^+ mode). Peptide fragments deriving from enzymatic hydrolysis were identified by molecular weight, allowing location of the site of cleavage. Analytical RP-HPLC method: Agilent Polaris C8-A column (4.6×100 mm, 3 micron) eluted with a linear binary gradient of 10-90% MeCN (0.1% TFA v/v) in water (0.1% TFA v/v) over either 10 or 15 mins at 1.5 mL min^−1 at 40° C. with detection by UV absorption at 210 nm. Manual integration (AUC) allowed estimation of remaining intact peptide over the time course of the experiment.

[2] = target: T2, human glucose-dependent insulinotropic peptide receptor (GIPR) (Homo sapiens, UniProt P48546); test: cAMP assay, human GIPR cells; type: cell-based; details: Table 9, bis-lipidated peptides
T2 construct: expressed in transfected cells; host or cells: HEK293 cells or CHO cells
T2 sequence (P48546 22-466): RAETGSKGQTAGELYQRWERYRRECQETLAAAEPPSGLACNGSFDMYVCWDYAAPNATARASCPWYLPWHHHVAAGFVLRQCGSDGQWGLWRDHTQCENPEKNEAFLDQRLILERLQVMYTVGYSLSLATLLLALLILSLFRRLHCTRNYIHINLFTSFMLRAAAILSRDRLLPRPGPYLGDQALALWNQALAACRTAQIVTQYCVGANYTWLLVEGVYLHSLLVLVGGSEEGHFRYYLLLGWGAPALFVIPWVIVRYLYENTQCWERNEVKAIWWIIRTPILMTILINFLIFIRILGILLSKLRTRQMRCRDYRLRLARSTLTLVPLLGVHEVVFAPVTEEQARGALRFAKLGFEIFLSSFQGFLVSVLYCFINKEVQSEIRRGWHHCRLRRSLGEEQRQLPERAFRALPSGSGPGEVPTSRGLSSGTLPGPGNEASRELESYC
Procedure, shortened: (§1)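 Peptide-stimulated cAMP measured by two-step HTRF after a 30 min room-temperature incubation with receptor-expressing cells (hGLP-1R, hGIPR at 1×10^5 cells/ml; hGCGR at 2×10^5 cells/ml). Duplicate dilutions; EC50 from 4-parameter logistic fit of % Delta F.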

[3] = target: T3, human glucagon receptor (GCGR) (Homo sapiens, UniProt P47871); test: cAMP assay, human GCGR cells; type: cell-based; details: Table 9, bis-lipidated peptides
T3 construct: expressed in transfected cells; host or cells: HEK293 cells or CHO cells
Procedure, shortened: as §1

[4] = test system: FASSIF/Pancreatin® activated with 100 μg/mL human enterokinase; test: Proteolytic resistance to FASSIF/Pancreatin following full zymogen activation with enterokinase; type: in vitro ADME; details: t = 0; 37° C.
Experimental: A fresh suspension of FASSIF/P (Fasted-State Simulated Intestinal Fluid+USP Pancreatin®) was prepared according to that described by Galia, Nicolaides, Hörter, Lobenberg, Reppas and Dressman: Pharm. […] To the resulting preparation was added human enterokinase (100 μg/mL) to ensure the potential for full zymogen activity of the mixture which was used immediately without storage. Peptides for evaluation (1.0 mg, ˜250 nmoles) were initially dissolved in pre-warmed FASSIF without Pancreatin® (200 μL) to which was added pre-warmed fresh FASSIF/Pancreatin® ([…]) to initiate potential digestion. Following momentary vortexing of the Eppendorf reaction tube the mixture was incubated at 37° C. in a thermostatic waterbath for the duration of the experiment. 25 μL aliquots of the co-incubated peptide-enzyme mixture were periodically withdrawn (t=0, 5 m, 10 m, 15 m, 30 m, 1 h, 2 h) and quenched immediately by addition to a solution of 10% TFA in 1:1 water/acetonitrile (75 μL) to arrest proteolytic activity.

[5] = test system: recombinant α-chymotrypsin; test: Proteolytic resistance to α-chymotrypsin (% remaining intact peptide, RP-HPLC AUC); details: t = 0; 37° C., pH 7.8
[6] = as above; details: recombinant α-chymotrypsin in assay buffer, pH 7.8
[7] = target: T4, porcine pancreatic pepsin (Sus scrofa, UniProt P00791); test: Proteolytic resistance to pepsin (% remaining intact peptide, RP-HPLC AUC); type: in vitro ADME; details: t = 0; 37° C., pH 2.0
T4 construct: purchased Sigma P7012
Experimental: Pepsin: Lyophilized porcine pancreatic pepsin (Sigma: P7012) was reconstituted to afford a solution of 200 μg/mL (˜500 units/mL) in assay buffer (0.1 M HCl, pH 2.0) to give the enzyme stock solution. […] Ratio enzyme (units):peptide (moles) ˜1:6. […] Ratio enzyme (units):peptide (μmoles) ˜2:1.
Lyophilized porcine pancreatic pepsin (Sigma: P7012) was reconstituted to […] (˜500 units/mL) in assay buffer ([…], pH 2.0) to give the enzyme stock solution.

[8] = test system: FASSIF/P (Fasted-State Simulated Intestinal Fluid+USP Pancreatin®); test: Proteolytic resistance to fasted-state simulated intestinal fluid (FASSIF/Pancreatin); type: in vitro ADME; details: t = 0; 37° C.
Experimental: (§2) A fresh suspension of FASSIF/P (Fasted-State Simulated Intestinal Fluid+USP Pancreatin®) was prepared according to that described by Galia, Nicolaides, Hörter, Lobenberg, Reppas and Dressman: Pharm. Res. 15 (1998) 698-705. The resulting preparation is proteolytically equivalent to ˜375 units/mL (375 kU/L) and was used immediately without storage. Peptides for evaluation (1.0 mg, ˜250 nmoles) were initially dissolved in pre-warmed FASSIF without Pancreatin® (200 μL) to which was added pre-warmed fresh FASSIF/Pancreatin® (100 μL) to initiate potential digestion. Following momentary vortexing of the Eppendorf reaction tube the mixture was incubated at 37° C. in a thermostatic waterbath for the duration of the experiment. 25 μL aliquots of the co-incubated peptide-enzyme mixture were periodically withdrawn (t=0, 5 m, 10 m, 15 m, 30 m, 1 h, 2 h) and quenched immediately by addition to a solution of 10% TFA in 1:1 water/acetonitrile (75 μL) to arrest proteolytic activity.

[9] = as above; type: in vitro ADME; details: 37° C., read-out: Percentage remaining intact peptide (AUC by RP-HPLC) upon incubation with fasted-state simulated intestinal fluid (FASSIF/P)
Experimental: as §2

[10] = target: T5, human GLP-1 receptor (GLP-1R) (Homo sapiens, UniProt P43220); test: cAMP assay, human GLP-1R cells; type: cell-based; details: Table 9, bis-lipidated peptides
T5 construct: expressed in transfected cells; host or cells: HEK293 cells or CHO cells
Procedure, shortened: as §1

[11] = first replicate, read-out: Primary assay EC50 GIP-R (n1)
[12] = second replicate, read-out: Primary assay EC50 GIP-R (n2)
[13] = first replicate, read-out: Primary assay EC50 Gluc-R (n1)
[14] = second replicate, read-out: Primary assay EC50 Gluc-R (n2)

T3 sequence (P47871 26-477): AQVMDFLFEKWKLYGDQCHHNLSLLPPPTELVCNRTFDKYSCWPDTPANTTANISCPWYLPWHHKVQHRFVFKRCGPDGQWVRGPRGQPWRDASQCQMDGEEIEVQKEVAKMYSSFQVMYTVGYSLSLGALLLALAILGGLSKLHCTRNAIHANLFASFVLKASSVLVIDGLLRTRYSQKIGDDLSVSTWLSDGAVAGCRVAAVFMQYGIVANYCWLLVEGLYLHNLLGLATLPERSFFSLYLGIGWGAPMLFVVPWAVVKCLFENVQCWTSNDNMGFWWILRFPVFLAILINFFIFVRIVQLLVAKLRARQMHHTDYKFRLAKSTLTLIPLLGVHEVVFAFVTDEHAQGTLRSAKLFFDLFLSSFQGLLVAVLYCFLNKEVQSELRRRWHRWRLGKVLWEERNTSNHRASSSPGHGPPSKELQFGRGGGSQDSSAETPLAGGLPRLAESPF
T5 sequence (P43220 24-463): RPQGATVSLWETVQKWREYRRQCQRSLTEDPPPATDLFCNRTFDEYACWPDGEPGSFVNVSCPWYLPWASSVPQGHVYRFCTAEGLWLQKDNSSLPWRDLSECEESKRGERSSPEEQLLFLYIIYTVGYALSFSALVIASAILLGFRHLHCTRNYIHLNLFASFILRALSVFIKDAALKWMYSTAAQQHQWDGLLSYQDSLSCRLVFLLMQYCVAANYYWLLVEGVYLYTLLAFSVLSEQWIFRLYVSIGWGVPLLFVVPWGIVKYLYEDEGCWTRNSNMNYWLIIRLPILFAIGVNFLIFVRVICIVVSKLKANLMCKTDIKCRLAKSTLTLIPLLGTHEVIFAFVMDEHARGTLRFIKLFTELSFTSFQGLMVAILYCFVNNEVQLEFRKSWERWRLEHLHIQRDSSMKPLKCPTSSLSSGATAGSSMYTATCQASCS
T4 sequence (P00791 60-385): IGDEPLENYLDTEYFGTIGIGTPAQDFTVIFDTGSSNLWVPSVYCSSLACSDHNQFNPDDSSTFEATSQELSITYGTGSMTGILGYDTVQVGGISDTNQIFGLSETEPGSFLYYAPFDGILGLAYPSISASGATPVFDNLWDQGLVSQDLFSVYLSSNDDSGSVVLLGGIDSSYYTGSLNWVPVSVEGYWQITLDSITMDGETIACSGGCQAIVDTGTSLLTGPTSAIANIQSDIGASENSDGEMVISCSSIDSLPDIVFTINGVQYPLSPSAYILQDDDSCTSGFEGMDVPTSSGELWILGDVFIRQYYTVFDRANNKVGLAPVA
Chain of porcine pancreatic trypsin (P00761 9-231): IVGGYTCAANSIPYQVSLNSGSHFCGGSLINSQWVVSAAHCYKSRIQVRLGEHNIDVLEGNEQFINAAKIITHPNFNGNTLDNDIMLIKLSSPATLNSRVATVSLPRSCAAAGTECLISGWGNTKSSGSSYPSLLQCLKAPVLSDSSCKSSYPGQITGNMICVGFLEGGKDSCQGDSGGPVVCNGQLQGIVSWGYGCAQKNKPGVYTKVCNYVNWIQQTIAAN
T1 sequence (P08473 whole entry): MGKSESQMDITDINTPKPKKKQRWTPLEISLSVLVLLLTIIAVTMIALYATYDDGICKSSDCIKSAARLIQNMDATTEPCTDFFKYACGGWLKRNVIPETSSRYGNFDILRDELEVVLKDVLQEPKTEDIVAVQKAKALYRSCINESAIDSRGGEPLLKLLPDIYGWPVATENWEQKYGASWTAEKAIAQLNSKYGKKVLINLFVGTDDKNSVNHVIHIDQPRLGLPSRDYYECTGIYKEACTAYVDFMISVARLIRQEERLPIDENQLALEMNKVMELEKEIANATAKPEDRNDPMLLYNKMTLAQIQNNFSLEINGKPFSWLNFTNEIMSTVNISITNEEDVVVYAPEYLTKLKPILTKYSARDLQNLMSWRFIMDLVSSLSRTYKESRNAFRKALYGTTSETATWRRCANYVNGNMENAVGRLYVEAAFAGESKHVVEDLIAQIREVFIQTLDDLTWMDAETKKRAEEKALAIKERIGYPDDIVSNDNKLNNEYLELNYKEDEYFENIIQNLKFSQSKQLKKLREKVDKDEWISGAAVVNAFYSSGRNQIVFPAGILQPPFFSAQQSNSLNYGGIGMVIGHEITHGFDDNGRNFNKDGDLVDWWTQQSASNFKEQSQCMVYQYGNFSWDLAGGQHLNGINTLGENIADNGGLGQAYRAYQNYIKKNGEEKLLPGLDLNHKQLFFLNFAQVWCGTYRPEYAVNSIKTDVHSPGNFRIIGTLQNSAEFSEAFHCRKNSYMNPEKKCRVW

## CCCCCCCCCCCC(=O)N[C@@H](CCC(=O)NCCOCCOCC(=O)NCCOCCOCC(=O)NCCCC[C@H](NC(=O)[C@H](C)NC(=O)[C@@H](NC(=O)[C@H](Cc1ccccc1)NC(=O)[C@H](CCC(=O)O)NC(=O)[C@](C)(CCCCN)NC(=O)[C@H](C)NC(=O)[C@H](C)NC(=O)[C@H](CCC(=O)O)NC(=O)CNC(=O)[C@H](CCC(=O)O)NC(=O)[C@H](CCCCNC(=O)COCCOCCNC(=O)COCCOCCNC(=O)CC[C@H](NC(=O)CCCCCCCCCCC)C(=O)O)NC(=O)[C@H](Cc1ccc(O)cc1)NC(=O)[C@H](CO)NC(=O)[C@](C)(CO)NC(=O)[C@@H](NC(=O)[C@H](CC(=O)O)NC(=O)[C@H](CO)NC(=O)[C@@H](NC(=O)[C@](C)(Cc1ccccc1)NC(=O)[C@H](CO)NC(=O)CNC(=O)[C@H](CCC(=O)O)NC(=O)C(C)(C)NC(=O)[C@@H](N)Cc1c[nH]cn1)[C@@H](C)O)C(C)C)[C@@H](C)CC)C(=O)N[C@H](C(=O)N[C@H](C(=O)N[C@@H](CCC(=O)O)C(=O)NCC(=O)NCC(N)=O)C(C)C)C(C)C)C(=O)O [compound 269] (H-H[Aib]EGS[αMeF]TSDV[αMeS]SYK([AEEA-AEEA-γGlu-Lauroyl])EGEAA[αMeK]EFIAK([AEEA-AEEA-γGlu-Lauroyl])VVEGG-NH2; N-terminus assumed)
Recombinant Neprilysin
  Percentage remaining peptide (AUC at specified time-point by RP-HPLC) upon incubation with neprilysin, t = 0: 100%
[1]
  Percentage remaining intact peptide (AUC by RP-HPLC) upon incubation with trypsin: 100%
[2]; [11]
  EC50: ≥ 22.8 nM
[2]; [12]
  EC50: ≥ 22.8 nM
[3]; [13]
  EC50: ≥ 22.8 nM
[3]; [14]
  EC50: ≥ 22.8 nM
[4]
  Percentage remaining intact peptide (AUC by RP-HPLC) upon incubation with FASSIF activated with 100 μg/mL enterokinase: 100%
[5]
  Percentage remaining intact peptide (AUC by RP-HPLC) upon incubation with α-chymotrypsin: 100%
[6]
  remaining at 0.5 h: 97.1%
  remaining at 1 h: 95.8%
  remaining at 2 h: 96%
  remaining at 4 h: 94.2%
  remaining at 8 h: 92.6%
  remaining at 24 h: 89.4%
[7]
  Percentage remaining intact peptide (AUC by RP-HPLC) upon incubation with pepsin: 100%

## CCCCCCCCCCCC(=O)N[C@@H](CCC(=O)NCCOCCOCC(=O)NCCOCCOCC(=O)NCCCC[C@H](NC(=O)[C@H](C)NC(=O)[C@@H](NC(=O)[C@H](CCCC)NC(=O)[C@H](CCC(=O)O)NC(=O)[C@](C)(CCCCN)NC(=O)[C@H](C)NC(=O)[C@H](C)NC(=O)[C@H](CCC(=O)O)NC(=O)CNC(=O)[C@H](CCC(=O)O)NC(=O)[C@H](CC(C)C)NC(=O)[C@H](CCCCNC(=O)COCCOCCNC(=O)COCCOCCNC(=O)CC[C@H](NC(=O)CCCCCCCCCCC)C(=O)O)NC(=O)[C@H](CO)NC(=O)[C@](C)(CO)NC(=O)[C@@H](NC(=O)[C@H](CC(=O)O)NC(=O)[C@H](CO)NC(=O)[C@@H](NC(=O)[C@](C)(Cc1ccccc1)NC(=O)[C@H](CO)NC(=O)CNC(=O)[C@H](CCC(=O)O)NC(=O)C(C)(C)NC(=O)[C@@H](N)Cc1c[nH]cn1)[C@@H](C)O)C(C)C)[C@@H](C)CC)C(=O)N[C@H](C(=O)N[C@H](C(=O)N[C@@H](CCC(=O)O)C(=O)NCC(=O)NCC(N)=O)C(C)C)C(C)C)C(=O)O [compound 407] (H-H[Aib]EGS[αMeF]TSDV[αMeS]SK([AEEA-AEEA-γGlu-Lauroyl])LEGEAA[αMeK]E[Nle]IAK([AEEA-AEEA-γGlu-Lauroyl])VVEGG-NH2; N-terminus assumed)
[2]; [11]
  EC50: ≥ 21.5 nM
[2]; [12]
  EC50: ≥ 21.5 nM
[8]
  Percentage remaining intact peptide (AUC by RP-HPLC) upon incubation with fasted-state simulated intestinal fluid (FASSIF/P): 100%
[9]; t = 5 m
  remaining at 5 min, […]: 86.2%
[9]; t = 10 m
  remaining at 10 min, […]: 72.9%
[9]; t = 15 m
  remaining at 0.25 h, […]: 60.3%
[9]; t = 30 m
  remaining at 0.5 h, […]: 36.3%
[9]; t = 1 h
  remaining at 1 h, […]: 16.2%
[9]; t = 2 h
  remaining at 2 h, […]: 2.1%
[3]; [13]
  EC50: ≥ 21.5 nM
[3]; [14]
  EC50: ≥ 21.5 nM
[10]; mean of n1 and n2, read-out: Primary assay EC50 Mean pM GLP-1R
  EC50: 2 pM
[10]; replicate n2, read-out: Primary assay EC50 GLP-1R n2
  EC50: 2.01 pM
